Reference: patent US20250302821A1, “SYNERGISTIC ANTIFUNGAL COMPOSITION AND METHOD” (ST. JUDE CHILDREN'S RESEARCH HOSPITAL, INC., priority 2022, published 2025)

Tests used:
fungi = experiment: fungicidal activity of NK1-antagonists alone; type: cell-based; conditions: NK1-antagonist alone, at higher concentrations
[1] = system: resistant Candida auris strains; conditions: with fluconazole, voriconazole, itraconazole, cited from earlier work

Row | Compound | independent fungicidal activity (fungi) | synergistic enhancement of triazole antifungal activity ([1]; C. auris) | restoration of triazole susceptibility ([1]; several resistant Candida auris strains)
1 | C[C@@H](OC[C@@]1(c2ccccc2)CC[C@]2(CCC(=O)N2)CN1)c1cc(C(F)(F)F)cc(C(F)(F)F)c1 [rolapitant, (5S,8S)-8-[[(1R)-1-[3,5-bis(trifluoromethyl)phenyl]ethoxy]methyl]-8-phenyl-1,9-diazaspiro[4. 5]decan-2-one] | fungicidal activity |  | 
2 | Cc1ccccc1-c1cc(N2CCN(C)CC2)ncc1N(C)C(=O)C(C)(C)c1cc(C(F)(F)F)cc(C(F)(F)F)c1 [netupitant, 2-[3,5-bis(trifluoromethyl)phenyl]-N, 2-dimethyl-N-[4-(2-methylphenyl)-6-(4-methylpiperazin-1-yl)pyridin-3-yl]propanamide] | fungicidal activity |  | 
3 | C[C@@H](O[C@H]1OCCN(Cc2nc(=O)[nH][nH]2)[C@H]1c1ccc(F)cc1)c1cc(C(F)(F)F)cc(C(F)(F)F)c1 [aprepitant, 5-[[(2R,3S)-2-[(1R)-1-[3,5-bis(trifluoromethyl)phenyl]ethoxy]-3-(4-fluorophenyl)-4-morpholinyl]methyl]-1,2-dihydro-3H-1,2,4-triazol-3-one] |  | synergistically enhance the activity | restore fluconazole-, voriconazole-, and itraconazole-susceptibility
